In US20140155389A1, “BICYCLIC INHIBITORS OF ALK” (ABBVIE INC., priority 2011, published 2014) one finds Ki data, which are given here for 33 compounds.

The assay concerns the target T1, ALK (Homo sapiens, UniProt Q9UM73).
T1 construct: purchased Millipore
The assay is described as follows: ALK kinase assay (HTRF). It counts as biochemical. As to conditions: apparent Ki from IC50 by Cheng-Prusoff; ALK (Millipore) 3 nM or 4 nM, 50 μM ATP, 1 h at room temperature; read-out: HTRF_ALK Human - Ki. For orientation: TR-FRET usually uses a lanthanide donor and a delayed reading to cut background.

T1 sequence (Q9UM73 19-1620): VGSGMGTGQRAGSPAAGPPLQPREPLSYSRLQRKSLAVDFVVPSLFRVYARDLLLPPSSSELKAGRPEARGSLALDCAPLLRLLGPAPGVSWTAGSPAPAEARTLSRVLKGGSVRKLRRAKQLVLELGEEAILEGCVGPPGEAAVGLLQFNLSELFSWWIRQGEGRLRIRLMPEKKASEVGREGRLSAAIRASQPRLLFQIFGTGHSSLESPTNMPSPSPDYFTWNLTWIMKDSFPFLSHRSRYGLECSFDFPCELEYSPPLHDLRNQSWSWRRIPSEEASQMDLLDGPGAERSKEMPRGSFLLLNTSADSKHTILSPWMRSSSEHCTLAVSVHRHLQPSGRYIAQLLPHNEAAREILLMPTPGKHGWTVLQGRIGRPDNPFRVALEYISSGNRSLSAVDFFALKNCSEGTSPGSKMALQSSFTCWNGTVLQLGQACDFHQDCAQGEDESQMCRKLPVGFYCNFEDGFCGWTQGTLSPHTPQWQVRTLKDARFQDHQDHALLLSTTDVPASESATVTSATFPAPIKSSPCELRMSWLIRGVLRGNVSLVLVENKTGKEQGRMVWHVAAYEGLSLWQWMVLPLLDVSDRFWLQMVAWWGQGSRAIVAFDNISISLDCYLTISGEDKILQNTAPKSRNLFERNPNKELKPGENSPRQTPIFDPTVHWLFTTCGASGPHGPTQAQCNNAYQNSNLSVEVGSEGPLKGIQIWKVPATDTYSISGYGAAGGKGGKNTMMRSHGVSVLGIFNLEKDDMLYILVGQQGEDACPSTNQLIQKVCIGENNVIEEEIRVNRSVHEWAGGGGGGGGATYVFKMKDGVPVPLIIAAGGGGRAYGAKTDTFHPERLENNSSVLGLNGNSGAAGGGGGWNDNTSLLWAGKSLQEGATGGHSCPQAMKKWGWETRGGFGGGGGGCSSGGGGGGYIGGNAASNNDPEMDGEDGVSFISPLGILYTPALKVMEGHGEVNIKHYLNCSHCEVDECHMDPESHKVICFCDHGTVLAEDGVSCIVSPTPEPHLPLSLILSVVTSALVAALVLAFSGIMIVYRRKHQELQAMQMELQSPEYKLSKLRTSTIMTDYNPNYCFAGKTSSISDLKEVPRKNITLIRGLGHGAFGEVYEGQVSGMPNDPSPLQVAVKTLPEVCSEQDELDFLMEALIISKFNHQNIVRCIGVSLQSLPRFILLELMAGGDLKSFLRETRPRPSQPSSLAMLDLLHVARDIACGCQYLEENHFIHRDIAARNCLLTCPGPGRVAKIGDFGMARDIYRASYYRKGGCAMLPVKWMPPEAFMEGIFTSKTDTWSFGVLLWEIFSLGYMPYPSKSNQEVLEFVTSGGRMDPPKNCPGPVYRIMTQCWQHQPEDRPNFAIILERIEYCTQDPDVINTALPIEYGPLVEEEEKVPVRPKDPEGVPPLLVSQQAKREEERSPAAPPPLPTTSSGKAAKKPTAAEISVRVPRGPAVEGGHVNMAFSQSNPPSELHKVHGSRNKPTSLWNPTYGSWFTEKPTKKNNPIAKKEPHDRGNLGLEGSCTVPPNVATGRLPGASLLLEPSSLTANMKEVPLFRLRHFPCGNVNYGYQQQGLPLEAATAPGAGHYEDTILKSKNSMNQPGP

`Oc1nncc2cc(Cc3c(Cl)cccc3Cl)nc(Nc3ccc(N4CCNCC4)cc3)c12` [Example 5, 7-(2,6-dichlorobenzyl)-5-{[4-(piperazin-1-yl)phenyl]amino}pyrido[3,4-d]pyridazin-4-ol]: the Ki turned out to be 1 nM.
Under `COc1cc(N2CCNCC2)ccc1Nc1nc(Oc2ccncc2F)cc2cnnc(O)c12` [Example 83, 7-[(3-fluoropyridin-4-yl)oxy]-5-{[2-methoxy-4-(piperazin-1-yl)phenyl]amino}pyrido[3,4-d]pyridazin-4-ol] stands greater than 470 nM; under `COc1c(Nc2nc(Cc3c(Cl)cccc3Cl)cc3cnnc(O)c23)ccc(N2CCNCC2)c1F` [Example 59, 7-(2,6-dichlorobenzyl)-5-{[3-fluoro-2-methoxy-4-(piperazin-1-yl)phenyl]amino}pyrido[3,4-d]pyridazin-4-ol], 4 nM.
With `Oc1nncc2cc(Cc3c(Cl)cccc3Cl)nc(Nc3ccc(N4CCNCC4)cc3OC(F)(F)F)c12` [Example 64, 7-(2,6-dichlorobenzyl)-5-{[4-(piperazin-1-yl)-2-(trifluoromethoxy)phenyl]amino}pyrido[3,4-d]pyridazin-4-ol], the Ki was found to be 21 nM.
For `COc1cc(N2CCNCC2)ccc1Nc1nc(Nc2ccc(Cl)c(Cl)c2Cl)cc2cn[nH]c(=O)c12` [Example 77, 5-{[2-methoxy-4-(piperazin-1-yl)phenyl]amino}-7-[(2,3,4-trichlorophenyl)amino]pyrido[3,4-d]pyridazin-4(3H)-one], the Ki stood at 4 nM.
Regarding `COc1cc(N2CCNCC2)ccc1Nc1nc(Oc2c(Cl)cc(F)cc2Cl)cc2cn[nH]c(=O)c12` [Example 80, 7-(2,6-dichloro-4-fluorophenoxy)-5-{[2-methoxy-4-(piperazin-1-yl)phenyl]amino}pyrido[3,4-d]pyridazin-4(3H)-one], the Ki came out at 1 nM.
Consider `O=c1[nH]ncc2cc(Oc3ccccc3Cl)nc(Nc3ccc(C4CCNCC4)cn3)c12` [Example 118, 7-(2-chlorophenoxy)-5-{[5-(piperidin-4-yl)pyridin-2-yl]amino}pyrido[3,4-d]pyridazin-4(3H)-one], for which the Ki stood at 15 nM.
Take `COc1cc(N2CCNCC2)ccc1Nc1nc(Nc2c(Cl)cncc2Cl)cc2cn[nH]c(=O)c12` [Example 33, 7-[(3,5-dichloropyridin-4-yl)amino]-5-{[2-methoxy-4-(piperazin-1-yl)phenyl]amino}pyrido[3,4-d]pyridazin-4(3H)-one]: the Ki was 0.2 nM.
With `COc1cc(N2CCN(S(=O)(=O)C(C)C)CC2)ccc1Nc1nc(Cc2c(Cl)cccc2Cl)cc2cnnc(O)c12` [Example 11, 7-(2,6-dichlorobenzyl)-5-({2-methoxy-4-[4-(propan-2-ylsulfonyl)piperazin-1-yl]phenyl}amino)pyrido[3,4-d]pyridazin-4-ol], the Ki is greater than 4700 nM.
On to `Cc1cc(N2CCNCC2)cc(C)c1Nc1nc(Cc2c(Cl)cccc2Cl)cc2cnnc(O)c12` [Example 21, 7-(2,6-dichlorobenzyl)-5-{[2,6-dimethyl-4-(piperazin-1-yl)phenyl]amino}pyrido[3,4-d]pyridazin-4-ol], for which the Ki is 368 nM.
Turning to `COc1cc(N2CCNCC2)ccc1Nc1nc(Oc2ccncc2Cl)cc2cn[nH]c(=O)c12` [Example 81, 7-[(3-chloropyridin-4-yl)oxy]-5-{[2-methoxy-4-(piperazin-1-yl)phenyl]amino}pyrido[3,4-d]pyridazin-4(3H)-one], the Ki is greater than 470 nM.
With `COc1cc(N2CCNCC2)ccc1Nc1nc(Nc2cc(Cl)cc(Cl)c2)cc2cn[nH]c(=O)c12` [Example 31, 7-[(3,5-dichlorophenyl)amino]-5-{[2-methoxy-4-(piperazin-1-yl)phenyl]amino}pyrido[3,4-d]pyridazin-4(3H)-one], the Ki was found to be 19 nM.
As for `COc1cc(C2CCNCC2)ccc1Nc1cc(CCC2CC2)nc2cn[nH]c(=O)c12` [Example 104, 2-(2-cyclopropylethyl)-4-{[2-methoxy-4-(piperidin-4-yl)phenyl]amino}pyrido[2,3-d]pyridazin-5(6H)-one], the Ki was 75 nM.
In the case of `COc1cc(N2CCNCC2)ccc1Nc1nc(Nc2c(F)ccc(Cl)c2Cl)cc2cn[nH]c(=O)c12` [Example 65, 7-[(2,3-dichloro-6-fluorophenyl)amino]-5-{[2-methoxy-4-(piperazin-1-yl)phenyl]amino}pyrido[3,4-d]pyridazin-4(3H)-one], the Ki was found to be 1 nM.
Under `COc1cc(N2CCNCC2)ccc1Nc1nc(Oc2cccc(C)c2C)cc2cnnc(O)c12` [Example 82, 7-(2,3-dimethylphenoxy)-5-{[2-methoxy-4-(piperazin-1-yl)phenyl]amino}pyrido[3,4-d]pyridazin-4-ol] stands 4 nM; under `COc1cc(N2CCNCC2)ccc1Nc1nc(Nc2c(Cl)cc(F)cc2Cl)cc2cnnc(O)c12` [Example 35, 7-[(2,6-dichloro-4-fluorophenyl)amino]-5-{[2-methoxy-4-(piperazin-1-yl)phenyl]amino}pyrido[3,4-d]pyridazin-4-ol], 1 nM.
With `COc1cc(C2CCNCC2)ccc1Nc1cc(Cc2ccccc2Cl)nc2cn[nH]c(=O)c12` [Example 100, 2-(2-chlorobenzyl)-4-{[2-methoxy-4-(piperidin-4-yl)phenyl]amino}pyrido[2,3-d]pyridazin-5(6H)-one], the Ki amounted to 4 nM.
In the case of `COc1cc(N2CCNCC2)ccc1Nc1cc(Oc2ccccc2Cl)nc2cn[nH]c(=O)c12` [Example 89, 2-(2-chlorophenoxy)-4-{[2-methoxy-4-(piperazin-1-yl)phenyl]amino}pyrido[2,3-d]pyridazin-5(6H)-one], the Ki was 15 nM.
As for `COc1cc(N2CCNCC2)ccc1Nc1nc(Oc2ccccc2F)cc2cnnc(O)c12` [Example 76, 7-(2-fluorophenoxy)-5-{[2-methoxy-4-(piperazin-1-yl)phenyl]amino}pyrido[3,4-d]pyridazin-4-ol], the Ki worked out at 4 nM.
`CCOc1cc(N2CCNCC2)ccc1Nc1nc(Oc2ccccc2Cl)cc2cnnc(O)c12` [Example 114, 7-(2-chlorophenoxy)-5-{[2-ethoxy-4-(piperazin-1-yl)phenyl]amino}pyrido[3,4-d]pyridazin-4-ol]: the Ki was found to be 8 nM.
`O=c1[nH]ncc2cc(N3CCC(O)CC3)nc(Nc3ccc(CN4CCCC4)cc3Cl)c12` [Example 96, 5-{[2-chloro-4-(pyrrolidin-1-ylmethyl)phenyl]amino}-7-(4-hydroxypiperidin-1-yl)pyrido[3,4-d]pyridazin-4(3H)-one]: the Ki worked out at 9 nM.
Regarding `COc1cc(N2CCNCC2)ccc1Nc1nc(Oc2ccccc2Cl)cc2cn[nH]c(=O)c12` [Example 62, 7-(2-chlorophenoxy)-5-{[2-methoxy-4-(piperazin-1-yl)phenyl]amino}pyrido[3,4-d]pyridazin-4(3H)-one], the Ki stood at 2 nM.
On to `Cc1cc(Nc2nc(Cc3c(Cl)cccc3Cl)cc3cn[nH]c(=O)c23)ccc1N1CCNCC1` [Example 7, 7-(2,6-dichlorobenzyl)-5-{[3-methyl-4-(piperazin-1-yl)phenyl]amino}pyrido[3,4-d]pyridazin-4(3H)-one], for which the Ki stood at 1 nM.
As to `COc1cc(N2CCN(C(=O)c3ccccc3)CC2)ccc1Nc1nc(Cc2c(Cl)cccc2Cl)cc2cnnc(O)c12` [Example 9, [4-(4-{[7-(2,6-dichlorobenzyl)-4-hydroxypyrido[3,4-d]pyridazin-5-yl]amino}-3-methoxyphenyl)piperazin-1-yl](phenyl)methanone], the Ki was greater than 470 nM.
Turning to `Cc1cc(Nc2nc(Cc3c(Cl)cccc3Cl)cc3cn[nH]c(=O)c23)c(F)cc1N1CCNCC1` [Example 73, 7-(2,6-dichlorobenzyl)-5-{[2-fluoro-5-methyl-4-(piperazin-1-yl)phenyl]amino}pyrido[3,4-d]pyridazin-4(3H)-one], the Ki was 1 nM.
Under `COc1cc(N2CCN(C3CCN(C)CC3)CC2)ccc1Nc1nc(Cc2c(Cl)cccc2Cl)cc2cn[nH]c(=O)c12` [Example 15, 7-(2,6-dichlorobenzyl)-5-({2-methoxy-4-[4-(1-methylpiperidin-4-yl)piperazin-1-yl]phenyl}amino)pyrido[3,4-d]pyridazin-4(3H)-one] stands 3 nM; under `Oc1nncc2cc(N3CCC(F)CC3)nc(Nc3ccc(CN4CCCC4)cc3Cl)c12` [Example 90, 5-{[2-chloro-4-(pyrrolidin-1-ylmethyl)phenyl]amino}-7-(4-fluoropiperidin-1-yl)pyrido[3,4-d]pyridazin-4-ol], 7 nM; under `COc1cc(N2CCNCC2)ccc1Nc1nc(NC2=N[C@H](C(C)C)CO2)cc2cnnc(O)c12` [Example 23, 5-{[2-methoxy-4-(piperazin-1-yl)phenyl]amino}-7-{[(4R)-4-(propan-2-yl)-4,5-dihydro-1,3-oxazol-2-yl]amino}pyrido[3,4-d]pyridazin-4-ol], 21 nM.
In the case of `COc1cc(CN2CCOCC2)ccc1Nc1cc(Cc2ccccc2Cl)nc2cnnc(O)c12` [Example 94, 2-(2-chlorobenzyl)-4-{[2-methoxy-4-(morpholin-4-ylmethyl)phenyl]amino}pyrido[2,3-d]pyridazin-5-ol], the Ki was found to be 51 nM.
On to `COc1cc(N2CCNCC2)ccc1Nc1nc(NCCc2ccccn2)cc2cnnc(O)c12` [Example 47, 5-{[2-methoxy-4-(piperazin-1-yl)phenyl]amino}-7-{[2-(pyridin-2-yl)ethyl]amino}pyrido[3,4-d]pyridazin-4-ol], for which the Ki stood at 53 nM.
As to `COc1cc(N2CCNCC2)ccc1Nc1nc(Nc2ccccc2S(=O)(=O)C(C)C)cc2cn[nH]c(=O)c12` [Example 22, 5-{[2-methoxy-4-(piperazin-1-yl)phenyl]amino}-7-{[2-(propan-2-ylsulfonyl)phenyl]amino}pyrido[3,4-d]pyridazin-4(3H)-one], the Ki worked out at 2 nM.
As for `COc1cc(N2CCNCC2)ccc1Nc1nc(OC2CCCC2)cc2cnnc(O)c12` [Example 87, 7-(cyclopentyloxy)-5-{[2-methoxy-4-(piperazin-1-yl)phenyl]amino}pyrido[3,4-d]pyridazin-4-ol], the Ki was 4 nM.
Turning to `COc1cc(N2CCNCC2)ccc1Nc1nc(N2CCCCC2)cc2cn[nH]c(=O)c12` [Example 39, 5-{[2-methoxy-4-(piperazin-1-yl)phenyl]amino}-7-(piperidin-1-yl)pyrido[3,4-d]pyridazin-4(3H)-one], the Ki turned out to be 7 nM.
